Results on 2 compounds are retold here after patent publication US20020019412A1, “MODULATORS OF PROTEIN TYROSINE PHOSPHATASES (PTPASES)” (priority 1998, published 2002).

Series [1] has as its target T1, PTP1B (Homo sapiens, UniProt P18031).
T1 construct: a truncated form of PTP1B (corresponding to the first 321 amino acids); made in house; host or cells: E. coli
T1 sequence (P18031 1-321): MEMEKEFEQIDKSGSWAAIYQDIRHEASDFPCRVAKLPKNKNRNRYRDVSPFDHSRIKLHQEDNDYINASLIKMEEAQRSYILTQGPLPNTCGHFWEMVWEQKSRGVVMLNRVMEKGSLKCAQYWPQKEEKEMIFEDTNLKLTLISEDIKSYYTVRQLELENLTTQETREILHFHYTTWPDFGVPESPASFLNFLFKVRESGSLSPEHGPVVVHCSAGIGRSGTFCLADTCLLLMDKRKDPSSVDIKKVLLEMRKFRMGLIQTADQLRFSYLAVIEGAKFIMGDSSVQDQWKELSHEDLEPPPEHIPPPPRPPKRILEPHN
Put plainly: Inhibition of truncated PTP1B, p-nitrophenyl phosphate substrate. It is filed as biochemical. The conditions noted are these: truncated PTP1B (first 321 amino acids) expressed in E. coli; pNPP substrate; pH 5.5; 25° C., 60 minutes. The method, then: The compounds are evaluated for biological activity with a truncated form of PTP1B (corresponding to the first 321 amino acids), which is expressed in E. coli and purified to apparent homogeneity using published procedures well-known to those skilled in the art. The enzyme reactions are carried out using standard conditions essentially as described by Burke et al. (Biochemistry 35; 15989-15996 (1996)). The assay conditions are as follows. Appropriate concentrations of the compounds of the invention are added to the reaction mixtures containing different concentrations of the substrate, p-nitrophenyl phosphate (range: 0.16 to 10 mM—final assay concentration). The buffer used is 100 mM sodium acetate pH 5.5, 50 mM sodium chloride, 0.1% (w/v) bovine serum albumin and 5 mM dithiothreitol (total volume […]). The reaction is started by addition of the enzyme and carried out in microtiter plates at 25° C. for 60 minutes. The reactions are stopped by addition of NaOH. The enzyme activity is determined by measurement of the absorbance at 405 nm with appropriate corrections for absorbance at 405 nm of the compounds and p-nitrophenyl phosphate. The data are analyzed using nonlinear regression fit to classical Michaelis Menten enzyme kinetic models. Inhibition is expressed as Ki values in μM.

Where a name gives a salt, the structure may show the parent alone. A value given as a limit tells only on which side of the number the result lay.

By Ki is commonly meant the dissociation constant of the complex between target and ligand, obtained from inhibition or displacement. Low values mean tighter binding, high ones weaker binding. What is called melting point is the temperature of the solid-liquid transition.

In series [1], `O=C(O)C(=O)Nc1c(C(=O)O)sc2ncccc12` [Example 1, 3-(Oxalyl-amino)-thieno[2,3-b]pyridine-2-carboxylic acid, mono sodium salt] showed an inhibition constant Ki of 330 µM.

In turn, `O=C(O)C(=O)Nc1c(C(=O)O)sc2ncccc12` (as salt: sodium) [Example 1, 3-(Oxalyl-amino)-thieno[2,3-b]pyridine-2-carboxylic acid, mono sodium salt] gave a melting point above 250 °C.
